Source: PubChem BioAssay AID1963845 (Molecular Pharmacology Branch, DTP, NCI, 2024)

Tested on: 429239-143-T-J1-PDC complex spheroid viability
Test: Anticancer human tumor 429239-143-T-J1-PDC patient-derived small cell lung carcinoma cell line growth inhibition [POLQ]
Conditions: for IC50: curve of first compound; for viability, T/C: stronger effect = lower value
Protocol: Multicellular complex tumor spheroid response to Polymerase (POL) inhibitors (novobiocin, ART-558, RP6685) in combination with a variety of drugs and investigational agents in selected tumor cell lines
The POL inhibitors (novobiocin, ART-558, and RP6685) were evaluated both individually and in combination with standard of care and investigational anticancer small molecules within a complex spheroid model of solid tumors. . Complex spheroids include a stromal component modeled by human endothelial cells (HUVEC) and fibroblasts modeled by human mesenchymal stem cells (MSCs). The concentration ranges selected for each drug and investigational agent were based upon clinically achievable concentrations if the clinical Cmax of the agent was known.
Compounds. The drugs and investigational agents: novobiocin (NSC847541), ART-558 (NSC835418), RP-6685 (NSC848927), peposertib (NSC802822), ceralasertib (NSC780249), elimusertib (NSC800525), camonsertib (NSC841442), AZD-1390 (NSC803789), olaparib (NSC753686), talazoparib (NSC767125), rucaparib (NSC756644), sotorasib (NSC818433), MRTX-1133 (NSC836407), SN-38 (NSC673596), topotecan (NSC609699), epotoside (NSC141540), doxorubicin (NSC123127), gemcitabine (NSC613327), 5-fluorouracil (NSC19893), paclitaxel (NSC125973), vemurafenib (NSC761431), MSA-2 (NSC828583), SN-011 (NSC837082), adavosertib (NSC754352), prexasertib (NSC758257), carboplatin (NSC241240) and oxaliplatin (NSC266046), were obtained from the National Cancer Institute (NCI) Developmental Therapeutics Program Chemical Repository (21). The FDA-approved anticancer drug set is available from the Developmental Therapeutics Program at https://dtp.cancer.gov/organization/dscb/obtaining/. […] The stock solutions were prepared in dimethyl sulfoxide (DMSO, Sigma-Aldrich, St. Louis, MO, cat. D2650), except for the platinum compounds which were prepared in saline (Quality Biological, Gaithersburg, MD, cat. 114-055-101), at 800-fold the tested concentration and stored at -70 degrees C prior to their use. All drugs and investigational agents were tested over a range starting from a high concentration at or near the clinical Cmax and decreasing in half-log increments. If the clinical Cmax for an agent had not been determined, the highest concentration tested was 10 microM, except for SN-38, which was tested at a high concentration of 1 microM.
Cell Culture. All cells were maintained in an incubator at 37 degrees C and 5% CO2 with 95% humidity. The PDC lines were cultured according to standard operating procedures established by the NCI PDMR (https://pdmr.cancer.gov). Table 3 of the manuscript, lists the cell lines along with the number of the three cell types plated to form the mct-spheroids and media for tumor cell growth. After thawing, all PDC lines, except 997537-175-T-J1-PDC and 415267-285-R-J2-PDC, were cultured in Matrigel-coated flasks prepared with a working solution of 1X Ham's F-12 nutrient mix, without supplementation (Thermo Fisher Scientific, cat. 11765054), 100 U/mL penicillin-streptomycin (Thermo Fisher Scientific, cat. 15140122), and 2.5% Matrigel (Corning Inc., Corning, NY, cat. 354248) for the first three passages. The two PDC lines 997537-175-T-J1-PDC and 415267-285-R-J2-PDC were cultured on uncoated flasks. The 857933-349-R-J2-PDC line was cultured in 6C/Colon 1B media containing advanced DMEM/F-12 (Thermo Fisher Scientific, cat. 12634028), 10 mM HEPES (Thermo Fisher Scientific, cat. 15630080), 1X GlutaMAX supplement (Thermo Fisher Scientific, cat. 35050061), 0.1 mg/mL primocin (InvivoGen, San Diego, CA, cat. ant-pm-2), 10% defined fetal bovine serum, heat inactivated (HyClone Laboratories Inc., Logan, UT, cat. SH30070.03HI), 50% L-WRN conditioned media (ATCC, cat. CRL-3276), 1.25 mM N-Acetyl-L-cysteine (Sigma-Aldrich, cat. A9165), 10 mM nicotinamide (Sigma-Aldrich, cat. N0636), 1X B-27 supplement (Thermo Fisher Scientific, cat. 17504044), 1X N-2 supplement (Thermo Fisher Scientific, cat. […]

[1] = second compound 0.0316 µM, first compound 0.0316 µM
[2] = second compound 0.0316 µM, first compound 0.1 µM
[3] = second compound 0.0316 µM, first compound 0.316 µM
[4] = second compound 0.0316 µM, first compound 1 µM
[5] = second compound 0.1 µM, first compound 0.0316 µM
[6] = second compound 0.1 µM, first compound 0.1 µM
[7] = second compound 0.1 µM, first compound 0.316 µM
[8] = second compound 0.1 µM, first compound 1 µM
[9] = second compound 0.316 µM, first compound 0.0316 µM
[10] = second compound 0.316 µM, first compound 0.1 µM
[11] = second compound 0.316 µM, first compound 0.316 µM
[12] = second compound 0.316 µM, first compound 1 µM
[13] = second compound 1 µM, first compound 0.0316 µM
[14] = second compound 1 µM, first compound 0.1 µM
[15] = second compound 1 µM, first compound 0.316 µM
[16] = second compound 1 µM, first compound 1 µM
[17] = second compound 3.16 µM, first compound 0.0316 µM
[18] = second compound 3.16 µM, first compound 0.1 µM
[19] = second compound 3.16 µM, first compound 0.316 µM
[20] = second compound 3.16 µM, first compound 1 µM
[21] = second compound 10 µM, first compound 0.0316 µM
[22] = second compound 10 µM, first compound 0.1 µM
[23] = second compound 10 µM, first compound 0.316 µM
[24] = second compound 10 µM, first compound 1 µM
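Also: luminescence signal used as surrogate measure of viable cells; spheroids exposed to compounds for seven days before readout.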
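For viability, T/C in this document: 100% = DMSO vehicle control viability as luminescence relative to vehicle.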

## CC1COCCN1c1cc(-c2ccnn2C)c2ccnc(-c3ccn[nH]3)c2n1 (centres undefined) + Cc1cccc(N(C)C(=O)C2C(O)CCN2c2nc(C)cc(C(F)(F)F)c2C#N)c1
Second compound 0.0316 µM
  IC50: 135 nM
Second compound 0.1 µM
  IC50: 121 nM
Second compound 0.316 µM
  IC50: 128 nM
Second compound 1 µM
  IC50: 88.5 nM
Second compound 3.16 µM
  IC50: 90.9 nM
Second compound 10 µM
  IC50: 106 nM
[1]
  viability, T/C: 88.1%
[2]
  viability, T/C: 54.9%
[3]
  viability, T/C: 34.8%
[4]
  viability, T/C: 15.2%
Second compound 0.0316 µM, first compound 3.16 µM
  viability, T/C: 9.81%
Second compound 0.0316 µM, first compound 10 µM
  viability, T/C: 10.9%
[5]
  viability, T/C: 83.7%
[6]
  viability, T/C: 54.4%
[7]
  viability, T/C: 26.7%
[8]
  viability, T/C: 11.2%
Second compound 0.1 µM, first compound 3.16 µM
  viability, T/C: 9.92%
Second compound 0.1 µM, first compound 10 µM
  viability, T/C: 10.2%
[9]
  viability, T/C: 82.1%
[10]
  viability, T/C: 55.4%
[11]
  viability, T/C: 29.9%
[12]
  viability, T/C: 12.9%
Second compound 0.316 µM, first compound 3.16 µM
  viability, T/C: 9.82%
Second compound 0.316 µM, first compound 10 µM
  viability, T/C: 8.22%
[13]
  viability, T/C: 86.3%
[14]
  viability, T/C: 44.1%
[15]
  viability, T/C: 28.4%
[16]
  viability, T/C: 13.8%
Second compound 1 µM, first compound 3.16 µM
  viability, T/C: 11.9%
Second compound 1 µM, first compound 10 µM
  viability, T/C: 9.85%
[17]
  viability, T/C: 77.9%
[18]
  viability, T/C: 44.1%
[19]
  viability, T/C: 35%
[20]
  viability, T/C: 16.1%
Second compound 3.16 µM, first compound 3.16 µM
  viability, T/C: 11.2%
Second compound 3.16 µM, first compound 10 µM
  viability, T/C: 10.4%
[21]
  viability, T/C: 77.4%
[22]
  viability, T/C: 50.7%
[23]
  viability, T/C: 30.7%
[24]
  viability, T/C: 17.7%
Second compound 10 µM, first compound 3.16 µM
  viability, T/C: 11.7%
Second compound 10 µM, first compound 10 µM
  viability, T/C: 9.99%

## CCc1c2c(nc3ccc(O)cc13)-c1cc3c(c(=O)n1C2)COC(=O)[C@]3(O)CC + Nc1ccc(C#CCN(C(=O)Cc2ncc(C(F)(F)F)cc2C(F)(F)F)c2ccc(F)cc2)nn1
Second compound 0.0316 µM
  IC50: < 3.16 nM
Second compound 0.1 µM
  IC50: < 3.16 nM
Second compound 0.316 µM
  IC50: < 3.16 nM
Second compound 1 µM
  IC50: < 3.16 nM
Second compound 3.16 µM
  IC50: < 3.16 nM
Second compound 10 µM
  IC50: < 3.16 nM
Second compound 0.0316 µM, first compound 0.00316 µM
  viability, T/C: 12%
Second compound 0.0316 µM, first compound 0.01 µM
  viability, T/C: 8.29%
[1]
  viability, T/C: 7.72%
[2]
  viability, T/C: 6.64%
[3]
  viability, T/C: 4.44%
[4]
  viability, T/C: 1.99%
Second compound 0.1 µM, first compound 0.00316 µM
  viability, T/C: 10.2%
Second compound 0.1 µM, first compound 0.01 µM
  viability, T/C: 7.32%
[5]
  viability, T/C: 7.97%
[6]
  viability, T/C: 6.96%
[7]
  viability, T/C: 4.07%
[8]
  viability, T/C: 3.28%
Second compound 0.316 µM, first compound 0.00316 µM
  viability, T/C: 8.87%
Second compound 0.316 µM, first compound 0.01 µM
  viability, T/C: 7.47%
[9]
  viability, T/C: 6.42%
[10]
  viability, T/C: 7.02%
[11]
  viability, T/C: 6%
[12]
  viability, T/C: 3.04%
Second compound 1 µM, first compound 0.00316 µM
  viability, T/C: 8.25%
Second compound 1 µM, first compound 0.01 µM
  viability, T/C: 8.49%
[13]
  viability, T/C: 7.35%
[14]
  viability, T/C: 7.22%
[15]
  viability, T/C: 4.56%
[16]
  viability, T/C: 1.52%
Second compound 3.16 µM, first compound 0.00316 µM
  viability, T/C: 8.61%
Second compound 3.16 µM, first compound 0.01 µM
  viability, T/C: 7.3%
[17]
  viability, T/C: 8.79%
[18]
  viability, T/C: 8.33%
[19]
  viability, T/C: 4.53%
[20]
  viability, T/C: 2.41%
Second compound 10 µM, first compound 0.00316 µM
  viability, T/C: 6.48%
Second compound 10 µM, first compound 0.01 µM
  viability, T/C: 7.39%
[21]
  viability, T/C: 8.55%
[22]
  viability, T/C: 6.94%
[23]
  viability, T/C: 4.47%
[24]
  viability, T/C: 1.68%
